Experimental data as given in US7713701B2, “DNA-binding polymers” (California Institute of Technology, priority 2004, dated 2010).
Where “and” joins values, the source holds several entries; their conditions need not be identical. Equal entries are not always repeated.

Columns and labels:
[1] = system: T-A base pair at N-terminal position of binding site 5′-A T N T A C A-3′ (N=T), 285 bp PCR product from plasmid pCW15; assay: Quantitative DNase I footprint titration, T-A site; conditions: for Equilibrium association constant, T-A: DNase I footprint titration, 22° C., pH 7.0, 10 mM Tris-HCl, 10 mM KCl, 10 mM MgCl2, 5 mM CaCl2, mean of at least three, SD in parentheses; for preference / specificity for T-A relative to G-C / selectivity for T-A relative to A-T: ratio of association constants
Procedure: (§1) Oligonucleotide primers SF1 (5′-AATTC-GAGCTCGGTACCGGGG-3′; SEQ ID NO:1) and SF2(5′-[…]-3′; SEQ ID NO:2) were synthesized by the Biopolymer Synthesis Center at the California Institute of Technology. Products from PCR amplification of the pCW15 using 5′-[γ-^32P]-labeled SF1 and SF2 were purified on a 7% non-denaturing polyacrylamide gel. Glycogen (20 mg/mL), dNTPs (PCR nucleotide mix), and all enzymes, unless otherwise stated, were purchased from Boehringer-Mannheim. Deoxyadenosine [γ-^32P]triphosphate was obtained from ICN. Calf thymus DNA (sonicated, deproteinized) and DNase I (7500 units/mL. FPLC pure) were from Amersham Pharmacia. AmpliTaq DNA polymerase was obtained from Perkin-Elmer and was used with provided buffers. Tris.HCl, DTT, RNase-free water, and 0.5 M EDTA were from United States Biochemical. Calcium chloride, potassium chloride, and magnesium chloride were purchased from Fluka. Tris-borate-EDTA was from GIBCO and bromophenol blue was from Acros. All reagents were used without further purification.
(§2) The DNA sequence specificity of novel thiophene-2-carboxamide-containing polymers (DNA-binding polymers 1-8) was evaluated by comparing their affinities for each Watson-Crick base pair to those of N-methylimidazole (Im) and N-methylpyrrole (Py) (DNA-binding polymers 9-10). […] Affinities were determined using DNase I footprinting, as performed by standard protocols (e.g., Trauger et al., Methods Enzymol. 2001, 340, 450).
(§3) Briefly, Quantitative DNase I footprinting titration experiments (10 mM Tris-HCl. 10 mM KCl, 10 mM MgC2, 5 mM CaCl2, pH 7.0, 22° C.) were performed on 5′-^32P end-labeled, 285 bp PCR product from plasmid construct pCW15 (as described previously in Ellervik et al., J. Am. Chem. Soc. 2000, 122, 9354). This plasmid contains four binding sites that vary at a single N-terminal position, 5′-A T N T A C A-3′, where N=T, A, G, C. The divergent behavior of control DNA-binding polymers 9 and 10 illustrates the need for development of new N-terminal residues.

[2] = system: A-T base pair at N-terminal position of binding site 5′-A T N T A C A-3′ (N=A), 285 bp PCR product from plasmid pCW15; assay: Quantitative DNase I footprint titration, A-T site; conditions: 22° C., pH 7.0, 10 mM Tris-HCl, 10 mM KCl, 10 mM MgCl2, 5 mM CaCl2, mean of at least three, SD in parentheses
Procedure: as §1, §2, §3

[3] = system: G-C base pair at N-terminal position, binding site 5′-A T G T A C A-3′, 285 bp PCR product from plasmid pCW15; assay: Quantitative DNase I footprint titration, G-C site; conditions: for Equilibrium association constant, G-C: DNase I footprint titration, 22° C., pH 7.0, 10 mM Tris-HCl, 10 mM KCl, 10 mM MgCl2, 5 mM CaCl2, mean of at least three, SD in parentheses
Procedure: as §1, §2, §3

[4] = system: C-G base pair at N-terminal position of binding site 5′-A T N T A C A-3′ (N=C), 285 bp PCR product from plasmid pCW15; assay: Quantitative DNase I footprint titration, C-G site; conditions: 22° C., pH 7.0, 10 mM Tris-HCl, 10 mM KCl, 10 mM MgCl2, 5 mM CaCl2, mean of at least three, SD in parentheses
Procedure: as §1, §2, §3

[5] = system: four binding sites 5′-A T N T A C A-3′, N=T, A, G, C, of pCW15 PCR product; assay: DNase I footprinting, sequence specificity across the four sites; conditions: comparison of affinities for the four Watson-Crick base pairs
Procedure: as §1, §2, §3

| SMILES | Equilibrium association constant, T-A [1] | Equilibrium association constant, A-T [2] | Equilibrium association constant, G-C [3] | Equilibrium association constant, C-G [4] | sequence specificity (in words) [5] | preference / specificity for T-A relative to G-C [1] [fold] | selectivity for T-A relative to A-T [1] [fold] | preference for G-C relative to T-A, A-T, and C-G base pairs ([3]; ratio of association constants) [fold] |
| --- | --- | --- | --- | --- | --- | --- | --- | --- |
| CN(C)CCCNC(=O)CCNC(=O)c1cc(NC(=O)c2cc(NC(=O)c3cc(NC(=O)c4nc(NC(=O)CCCNC(=O)c5cc(NC(=O)c6cc(NC(=O)c7cc(NC(=O)c8cccs8)cn7C)cn6C)cn5C)cn4C)cn3C)cn2C)cn1C [compound 1] | 6.0 (0.7) × 10^9 M^−1 | 4.7 (0.7) × 10^9 M^−1 | 4.3 (0.4) × 10^8 M^−1 | 2.2 (0.3) × 10^9 M^−1 | little sequence specificity |  |  |  |
| Cc1ccsc1C(=O)Nc1cc(C(=O)Nc2cc(C(=O)Nc3cc(C(=O)NCCCC(=O)Nc4cn(C)c(C(=O)Nc5cc(C(=O)Nc6cc(C(=O)Nc7cc(C(=O)NCCC(=O)NCCCN(C)C)n(C)c7)n(C)c6)n(C)c5)n4)n(C)c3)n(C)c2)n(C)c1 [compound 2] | 2.3 (0.4) × 10^9 M^−1 | 1.4 (0.2) × 10^9 M^−1 | 1.0 (0.4) × 10^7 M^−1 | 1.0 (0.3) × 10^7 M^−1 |  | 140 |  |  |
| CN(C)CCCNC(=O)CCNC(=O)c1cc(NC(=O)c2cc(NC(=O)c3cc(NC(=O)c4nc(NC(=O)CCCNC(=O)c5cc(NC(=O)c6cc(NC(=O)c7cc(NC(=O)c8sccc8N)cn7C)cn6C)cn5C)cn4C)cn3C)cn2C)cn1C [compound 3] | 6.3 (1.0) × 10^9 M^−1 | 4.6 (0.6) × 10^9 M^−1 | 7.8 (0.9) × 10^8 M^−1 | 2.2 (0.3) × 10^8 M^−1 | distinguish T-A from G-C but again do not distinguish T-A from A-T |  |  |  |
| CC(=O)Nc1ccsc1C(=O)Nc1cc(C(=O)Nc2cc(C(=O)Nc3cc(C(=O)NCCCC(=O)Nc4cn(C)c(C(=O)Nc5cc(C(=O)Nc6cc(C(=O)Nc7cc(C(=O)NCCC(=O)NCCCN(C)C)n(C)c7)n(C)c6)n(C)c5)n4)n(C)c3)n(C)c2)n(C)c1 [compound 4] | 5.9 (0.3) × 10^9 M^−1 | 2.9 (0.1) × 10^9 M^−1 | 6.6 (0.4) × 10^8 M^−1 | 6.0 (0.2) × 10^8 M^−1 | distinguish T-A from G-C but again do not distinguish T-A from A-T |  |  |  |
| CN(C)CCCNC(=O)CCNC(=O)c1cc(NC(=O)c2cc(NC(=O)c3cc(NC(=O)c4nc(NC(=O)CCCNC(=O)c5cc(NC(=O)c6cc(NC(=O)c7cc(NC(=O)c8sccc8O)cn7C)cn6C)cn5C)cn4C)cn3C)cn2C)cn1C [compound 5] | 6.2 (0.6) × 10^9 M^−1 | 4.5 (0.6) × 10^9 M^−1 | 2.1 (0.3) × 10^8 M^−1 | 8.4 (0.1) × 10^7 M^−1 | distinguish T-A from G-C but again do not distinguish T-A from A-T |  |  |  |
| COc1ccsc1C(=O)Nc1cc(C(=O)Nc2cc(C(=O)Nc3cc(C(=O)NCCCC(=O)Nc4cn(C)c(C(=O)Nc5cc(C(=O)Nc6cc(C(=O)Nc7cc(C(=O)NCCC(=O)NCCCN(C)C)n(C)c7)n(C)c6)n(C)c5)n4)n(C)c3)n(C)c2)n(C)c1 [compound 6] | 2×10^9 M^−1 and 2.0 (0.4) × 10^9 M^−1 | 3.2 (0.6) × 10^8 M^−1 | ≦1.0 × 10^7 M^−1 | ≦1.0 × 10^7 M^−1 |  | > 200 | 6 |  |
| CN(C)CCCNC(=O)CCNC(=O)c1cc(NC(=O)c2cc(NC(=O)c3cc(NC(=O)c4nc(NC(=O)CCCNC(=O)c5cc(NC(=O)c6cc(NC(=O)c7cc(NC(=O)c8sccc8F)cn7C)cn6C)cn5C)cn4C)cn3C)cn2C)cn1C [compound 7] | 1.2 (0.2) × 10^10 M^−1 | 3.9 (0.3) × 10^9 M^−1 | 3.7 (0.4) × 10^8 M^−1 | 2.9 (0.3) × 10^8 M^−1 |  |  | 3 |  |
| CN(C)CCCNC(=O)CCNC(=O)c1cc(NC(=O)c2cc(NC(=O)c3cc(NC(=O)c4nc(NC(=O)CCCNC(=O)c5cc(NC(=O)c6cc(NC(=O)c7cc(NC(=O)c8sccc8Cl)cn7C)cn6C)cn5C)cn4C)cn3C)cn2C)cn1C [compound 8] | 1.3 (0.2) × 10^10 M^−1 | 3.7 (0.2) × 10^9 M^−1 | 3.1 (0.6) × 10^8 M^−1 | 2.1 (1.1)× 10^8 M^−1 |  |  | 3 |  |
| CN(C)CCCNC(=O)CCNC(=O)c1cc(NC(=O)c2cc(NC(=O)c3cc(NC(=O)c4nc(NC(=O)CCCNC(=O)c5cc(NC(=O)c6cc(NC(=O)c7cc(NC(=O)c8nccn8C)cn7C)cn6C)cn5C)cn4C)cn3C)cn2C)cn1C [compound 9] | 3.8 (0.3) × 10^9 M^−1 | 2.8 (0.2) × 10^9 M^−1 |  | 3.2 (0.4) × 10^9 M^−1 |  |  |  | > 15 |
| CN(C)CCCNC(=O)CCNC(=O)c1cc(NC(=O)c2cc(NC(=O)c3cc(NC(=O)c4nc(NC(=O)CCCNC(=O)c5cc(NC(=O)c6cc(NC(=O)c7cc(NC(=O)c8cccn8C)cn7C)cn6C)cn5C)cn4C)cn3C)cn2C)cn1C [compound 10] | 5.1 (0.6) × 10^9 M^−1 | 3.1 (0.3) × 10^9 M^−1 | 1.1 (0.1) × 10^9 M^−1 | 2.6 (0.3) × 10^8 M^−1 | little sequence specificity |  |  |  |
